In publication PMC11314561, “Design and Synthesis of Novel Aminoindazole-pyrrolo[2,3-b]pyridine Inhibitors of IKKα That Selectively Perturb Cellular Non-Canonical NF-κB Signalling” (Molecules, 2024):

Legend:
Assay type in all cases: biochemical
[1] = target: T1, IKKβ (Homo sapiens, UniProt O14920); assay: DELFIA kinase assay, IKKβ; conditions: read-out: Ki Values IKKβ
T1 sequence (O14920 1-756): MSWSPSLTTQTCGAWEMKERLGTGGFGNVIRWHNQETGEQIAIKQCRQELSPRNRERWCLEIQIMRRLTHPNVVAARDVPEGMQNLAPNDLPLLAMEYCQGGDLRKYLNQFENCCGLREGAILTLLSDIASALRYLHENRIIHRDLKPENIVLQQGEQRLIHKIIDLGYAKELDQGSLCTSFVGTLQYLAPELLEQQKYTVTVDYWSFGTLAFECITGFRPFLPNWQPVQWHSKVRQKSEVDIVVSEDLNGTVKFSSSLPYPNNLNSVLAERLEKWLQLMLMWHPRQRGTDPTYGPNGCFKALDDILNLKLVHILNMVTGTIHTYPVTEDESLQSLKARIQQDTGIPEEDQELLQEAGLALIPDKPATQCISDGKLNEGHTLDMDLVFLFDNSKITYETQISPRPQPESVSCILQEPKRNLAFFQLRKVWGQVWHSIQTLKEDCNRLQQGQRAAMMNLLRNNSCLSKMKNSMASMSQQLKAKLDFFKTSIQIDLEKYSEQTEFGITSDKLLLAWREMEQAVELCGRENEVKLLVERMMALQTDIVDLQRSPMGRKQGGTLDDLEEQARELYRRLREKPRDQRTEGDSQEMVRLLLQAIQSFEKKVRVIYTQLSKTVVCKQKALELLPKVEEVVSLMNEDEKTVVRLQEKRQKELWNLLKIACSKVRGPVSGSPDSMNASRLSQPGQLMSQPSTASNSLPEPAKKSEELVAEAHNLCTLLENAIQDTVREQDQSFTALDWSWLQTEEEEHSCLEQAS
Protocol: IKKα and IKKβ inhibitory activity were determined using a dissociation-enhanced ligand fluorescent immunoassay (DELFIA) based on the protocol of HTScan™ IKKβ Kinase Assay (Cell Signaling Technology, Danvers, MA, USA) as described in [24].

[2] = target: DAPK1(h) (Homo sapiens, UniProt P53355); assay: kinase panel
Sequence of DAPK1(h) (P53355 whole entry): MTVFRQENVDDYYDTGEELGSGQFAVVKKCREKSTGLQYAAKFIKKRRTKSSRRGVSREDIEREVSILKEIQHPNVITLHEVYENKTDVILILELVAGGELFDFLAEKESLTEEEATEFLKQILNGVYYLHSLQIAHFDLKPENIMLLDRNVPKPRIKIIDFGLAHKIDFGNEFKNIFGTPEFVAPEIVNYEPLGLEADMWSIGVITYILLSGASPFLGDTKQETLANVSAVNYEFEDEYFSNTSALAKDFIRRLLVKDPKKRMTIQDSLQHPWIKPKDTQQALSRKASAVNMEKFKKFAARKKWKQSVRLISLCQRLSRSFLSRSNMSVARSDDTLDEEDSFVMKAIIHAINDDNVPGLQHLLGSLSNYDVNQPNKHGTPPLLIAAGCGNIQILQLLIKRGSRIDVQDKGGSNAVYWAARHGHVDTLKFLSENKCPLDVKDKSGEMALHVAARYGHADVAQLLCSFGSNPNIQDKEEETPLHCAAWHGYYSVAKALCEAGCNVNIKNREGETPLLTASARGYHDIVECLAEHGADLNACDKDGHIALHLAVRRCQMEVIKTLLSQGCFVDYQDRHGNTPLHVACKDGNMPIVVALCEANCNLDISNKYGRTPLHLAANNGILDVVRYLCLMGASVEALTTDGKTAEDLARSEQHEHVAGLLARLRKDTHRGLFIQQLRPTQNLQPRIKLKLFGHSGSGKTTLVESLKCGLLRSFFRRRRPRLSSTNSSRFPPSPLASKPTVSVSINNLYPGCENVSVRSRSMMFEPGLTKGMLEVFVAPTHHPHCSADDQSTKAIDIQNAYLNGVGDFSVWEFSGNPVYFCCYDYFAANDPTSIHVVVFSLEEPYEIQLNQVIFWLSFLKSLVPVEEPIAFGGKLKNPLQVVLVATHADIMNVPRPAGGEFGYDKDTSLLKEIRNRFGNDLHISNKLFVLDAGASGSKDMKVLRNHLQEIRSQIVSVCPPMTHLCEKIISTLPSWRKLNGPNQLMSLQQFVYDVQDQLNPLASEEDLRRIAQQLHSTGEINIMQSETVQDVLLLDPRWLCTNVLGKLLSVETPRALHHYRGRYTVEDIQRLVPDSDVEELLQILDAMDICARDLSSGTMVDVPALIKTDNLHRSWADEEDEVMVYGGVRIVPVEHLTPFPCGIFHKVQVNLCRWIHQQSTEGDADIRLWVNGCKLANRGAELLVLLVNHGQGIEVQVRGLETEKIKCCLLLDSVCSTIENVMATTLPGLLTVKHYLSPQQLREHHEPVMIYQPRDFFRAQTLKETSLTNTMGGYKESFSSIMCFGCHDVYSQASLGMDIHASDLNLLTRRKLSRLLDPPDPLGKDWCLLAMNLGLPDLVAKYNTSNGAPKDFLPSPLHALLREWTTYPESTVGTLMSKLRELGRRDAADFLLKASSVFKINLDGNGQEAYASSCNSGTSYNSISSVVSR
Method in brief: (§1)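 Values are percent inhibition from kinome-wide profiling of three series compounds across 231 kinases, with a structurally similar analogue tested on only 98 selected kinases.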

[3] = target: T2, TBK1(h) (Homo sapiens, UniProt Q9UHD2); assay: kinase panel
T2 sequence (Q9UHD2 1-729): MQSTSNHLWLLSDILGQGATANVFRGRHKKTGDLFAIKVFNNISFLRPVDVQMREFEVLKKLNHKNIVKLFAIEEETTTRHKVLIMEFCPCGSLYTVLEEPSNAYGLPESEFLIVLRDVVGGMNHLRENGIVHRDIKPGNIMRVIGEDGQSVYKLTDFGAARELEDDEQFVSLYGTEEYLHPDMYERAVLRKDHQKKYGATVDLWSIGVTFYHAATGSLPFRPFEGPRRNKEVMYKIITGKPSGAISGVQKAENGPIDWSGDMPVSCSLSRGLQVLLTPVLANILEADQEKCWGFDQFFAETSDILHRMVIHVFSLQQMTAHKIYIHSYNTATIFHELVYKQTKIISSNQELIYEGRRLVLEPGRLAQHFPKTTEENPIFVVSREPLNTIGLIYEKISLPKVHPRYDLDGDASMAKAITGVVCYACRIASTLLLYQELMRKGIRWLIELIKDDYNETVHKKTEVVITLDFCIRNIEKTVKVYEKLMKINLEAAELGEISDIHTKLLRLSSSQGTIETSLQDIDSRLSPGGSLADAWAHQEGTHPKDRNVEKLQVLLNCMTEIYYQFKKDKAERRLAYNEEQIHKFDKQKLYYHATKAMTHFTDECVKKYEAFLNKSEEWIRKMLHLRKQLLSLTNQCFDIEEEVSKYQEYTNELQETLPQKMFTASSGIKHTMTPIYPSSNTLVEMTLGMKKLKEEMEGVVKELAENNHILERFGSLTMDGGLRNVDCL
Method in brief: as §1

[4] = target: GSK3β(h) (Homo sapiens, UniProt P49841); assay: kinase panel
Sequence of GSK3β(h) (P49841 whole entry): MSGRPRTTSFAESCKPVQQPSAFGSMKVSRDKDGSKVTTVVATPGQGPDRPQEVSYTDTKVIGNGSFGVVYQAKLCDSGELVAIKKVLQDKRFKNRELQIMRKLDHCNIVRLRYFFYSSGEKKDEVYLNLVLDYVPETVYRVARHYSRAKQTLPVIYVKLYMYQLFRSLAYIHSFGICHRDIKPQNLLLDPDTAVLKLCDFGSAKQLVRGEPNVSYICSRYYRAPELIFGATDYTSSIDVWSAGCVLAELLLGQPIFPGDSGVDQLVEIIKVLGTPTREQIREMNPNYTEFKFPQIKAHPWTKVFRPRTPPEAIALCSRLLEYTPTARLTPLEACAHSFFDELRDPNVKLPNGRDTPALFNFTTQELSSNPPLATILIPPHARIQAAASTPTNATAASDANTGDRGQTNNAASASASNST
Method in brief: as §1

[5] = target: Flt4(h) (Homo sapiens, UniProt P35916); assay: kinase panel
Sequence of Flt4(h) (P35916 25-1363): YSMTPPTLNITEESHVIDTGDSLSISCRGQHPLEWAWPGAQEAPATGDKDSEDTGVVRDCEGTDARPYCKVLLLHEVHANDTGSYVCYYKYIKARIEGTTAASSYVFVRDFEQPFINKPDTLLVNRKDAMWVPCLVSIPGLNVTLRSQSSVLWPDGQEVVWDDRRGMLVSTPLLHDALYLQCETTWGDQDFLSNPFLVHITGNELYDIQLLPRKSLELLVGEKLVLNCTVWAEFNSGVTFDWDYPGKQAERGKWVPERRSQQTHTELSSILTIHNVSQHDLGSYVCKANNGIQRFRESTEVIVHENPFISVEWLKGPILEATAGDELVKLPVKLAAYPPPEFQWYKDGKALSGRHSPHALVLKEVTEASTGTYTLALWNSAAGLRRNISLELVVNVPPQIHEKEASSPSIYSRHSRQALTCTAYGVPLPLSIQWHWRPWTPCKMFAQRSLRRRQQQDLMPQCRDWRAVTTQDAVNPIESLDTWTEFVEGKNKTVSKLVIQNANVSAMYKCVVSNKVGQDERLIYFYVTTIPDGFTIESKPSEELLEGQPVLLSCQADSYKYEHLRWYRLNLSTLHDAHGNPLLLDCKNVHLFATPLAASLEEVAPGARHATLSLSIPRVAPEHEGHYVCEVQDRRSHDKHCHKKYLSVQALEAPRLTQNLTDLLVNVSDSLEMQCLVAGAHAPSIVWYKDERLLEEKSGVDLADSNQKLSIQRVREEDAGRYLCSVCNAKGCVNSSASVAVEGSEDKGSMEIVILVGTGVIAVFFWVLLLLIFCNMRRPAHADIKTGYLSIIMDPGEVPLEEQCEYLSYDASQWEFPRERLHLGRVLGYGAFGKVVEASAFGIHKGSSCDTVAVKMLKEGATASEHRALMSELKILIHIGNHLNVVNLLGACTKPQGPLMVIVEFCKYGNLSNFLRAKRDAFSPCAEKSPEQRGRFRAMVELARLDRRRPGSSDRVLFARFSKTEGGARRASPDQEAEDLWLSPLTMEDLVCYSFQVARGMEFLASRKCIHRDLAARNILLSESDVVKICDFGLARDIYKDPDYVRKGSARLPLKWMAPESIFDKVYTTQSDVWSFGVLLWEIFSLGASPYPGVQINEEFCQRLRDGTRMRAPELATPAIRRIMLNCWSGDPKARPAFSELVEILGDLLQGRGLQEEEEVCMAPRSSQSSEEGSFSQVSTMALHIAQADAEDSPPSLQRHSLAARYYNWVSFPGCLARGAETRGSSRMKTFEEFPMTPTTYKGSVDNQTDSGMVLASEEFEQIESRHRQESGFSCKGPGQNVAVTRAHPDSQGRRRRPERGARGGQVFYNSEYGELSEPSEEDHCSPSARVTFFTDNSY
Method in brief: as §1

With `Nc1n[nH]c2ccc(-c3ccnc4[nH]c(-c5ccccc5)cc34)cc12` [Compound 4] the Ki [1] was 15 nM, the inhibition at 1 µM [2] was -1% and the inhibition at 1 µM [3] was 81%. For the same molecule, the inhibition at 1 µM [4] was 92% and the inhibition at 1 µM [5] was 97%.
In the case of `Nc1n[nH]c2ccc(-c3ccnc4[nH]c(-c5cccc(OCc6ccccc6)c5)cc34)cc12` [Compound 5r [SU1261]], the Ki [1] is reported as 680 nM, the inhibition at 1 µM [2] is reported as -15% and the inhibition at 1 µM [3] is reported as 22%. It also gave an inhibition at 1 µM [4] of 57% and an inhibition at 1 µM [5] of 63%.
`Nc1n[nH]c2ccc(-c3ccnc4[nH]c(-c5ccnc(OCc6ccccc6)c5)cc34)cc12` [Compound 6g [SU1349]] showed a Ki [1] of 3350 nM, an inhibition at 1 µM [2] of 4% and an inhibition at 1 µM [3] of 2%. It also gave an inhibition at 1 µM [4] of 5% and an inhibition at 1 µM [5] of 43%.
